According to PubChem BioAssay (NCI):
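Results reflect a 48-hour exposure of cells in 96-well plates to compound at five concentrations. At the TGI there is no net growth.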

Legend:
Assay in all cases: inhibition of tumour cell growth, NCI panel, 48 h
[1] = test system: OVCAR-3 ovarian
[2] = test system: MOLT-4 leukemia
[3] = test system: SN12C renal
[4] = test system: M14 melanoma
[5] = test system: K-562 leukemia
[6] = test system: SK-MEL-2 melanoma
[7] = test system: CCRF-CEM leukemia
[8] = test system: LOX IMVI melanoma
[9] = test system: PC-3 prostate
[10] = test system: CAKI-1 renal
[11] = test system: NCI-H522 lung
[12] = test system: HCT-15 colon
[13] = test system: 786-0 renal
[14] = test system: TK-10 renal
[15] = test system: HS 578T breast
[16] = test system: HT29 colon
[17] = test system: UO-31 renal
[18] = test system: IGROV1 ovarian
[19] = test system: SF-268 CNS
[20] = test system: HL-60(TB) leukemia

Row | SMILES | TGI [1] | TGI [2] | TGI [3] | TGI [4] | TGI [5] | TGI [6] | TGI [7] | TGI [8] | TGI [9] | TGI [10] | TGI [11] | TGI [12] | TGI [13] | TGI [14] | TGI [15] | TGI [16] | TGI [17] | TGI [18] | TGI [19] | TGI [20]
1 | OC12CC3c4ccccc4NC3C3Oc4cccc5c4C31CCN(CC1CC1)C2C5 (configuration not stated) | 30.7 µM | 73.1 µM | 34.4 µM | 33.8 µM | 52.6 µM | 35 µM | 71 µM | 30 µM | 32.1 µM | 32.4 µM | 39.7 µM | 35.1 µM | 32.2 µM | 31.1 µM | 46.3 µM | 34.2 µM | 30.4 µM | 29.8 µM | 41.1 µM | –
2 | O=C1NC(=O)[C@@H](OCC2CCCCC2)[C@@H]2OCC3OC(C(O)C3O)C12 (some centres not stated) | > 100 µM | > 100 µM | > 100 µM | > 100 µM | – | > 100 µM | > 100 µM | > 100 µM | > 100 µM | > 100 µM | – | > 100 µM | > 100 µM | > 100 µM | > 100 µM | > 100 µM | – | > 100 µM | > 100 µM | > 100 µM
3 | Nc1nc(N)c2ncn(-c3ccc(Cl)c(Cl)c3)c2n1 | 44.1 µM | 42.5 µM | 61.7 µM | > 100 µM | – | 28 µM | 28.8 µM | – | 82.1 µM | > 100 µM | > 100 µM | > 100 µM | 27.5 µM | 70.6 µM | 42.4 µM | 58.1 µM | 59.2 µM | 64.6 µM | > 100 µM | –
4 | Brc1cccc(Nc2ncnc3sc4c(c23)CCC(Nc2cccc(Br)c2)C4)c1 (configuration not stated) | > 100 µM | > 100 µM | > 100 µM | > 100 µM | > 100 µM | > 100 µM | > 100 µM | > 100 µM | > 100 µM | > 100 µM | > 100 µM | > 100 µM | > 100 µM | > 100 µM | > 100 µM | > 100 µM | > 100 µM | > 100 µM | > 100 µM | –
5 | FC(F)(F)c1ccc2c(c1)nc(Cc1ccc(Cl)c(Cl)c1)n2CC1CCCN2CCCCC12 (configuration not stated) | 82.3 µM | > 100 µM | 42.8 µM | 25.2 µM | > 100 µM | 76.3 µM | – | 31.6 µM | > 100 µM | > 100 µM | 30.8 µM | > 100 µM | 30.7 µM | 74.9 µM | 34.4 µM | 28.2 µM | – | > 100 µM | > 100 µM | 51.3 µM
6 | CN(C(=O)[C@@H](NC(=O)OC(C)(C)C)c1ccccc1)[C@H]1CCCC[C@@H]1N1CCCC1 | > 100 µM | > 100 µM | > 100 µM | > 100 µM | > 100 µM | > 100 µM | – | – | > 100 µM | > 100 µM | > 100 µM | > 100 µM | > 100 µM | > 100 µM | > 100 µM | > 100 µM | > 100 µM | > 100 µM | > 100 µM | > 100 µM
7 | CC(=O)/C=C(/C=N/O)c1ccccc1 | > 100 µM | > 100 µM | > 100 µM | > 100 µM | > 100 µM | > 100 µM | > 100 µM | > 100 µM | > 100 µM | > 100 µM | > 100 µM | > 100 µM | > 100 µM | > 100 µM | > 100 µM | > 100 µM | > 100 µM | > 100 µM | > 100 µM | –
8 | COc1cc(CNc2nc3ccccc3n2Cc2ccccc2)cc(CN2CCOCC2)c1O | 56.6 µM | > 100 µM | > 100 µM | 40.4 µM | 53.1 µM | 47.5 µM | > 100 µM | 30.7 µM | 99.5 µM | > 100 µM | 78.2 µM | 70.6 µM | 31.6 µM | 65.9 µM | 80.9 µM | 70.4 µM | 52.5 µM | > 100 µM | > 100 µM | –
9 | Cc1cc(C)c(S(=O)(=O)N(CCCCCCN)OCCCN)c(C)c1 | 46 µM | 34.4 µM | 37.2 µM | 44.9 µM | > 100 µM | 36 µM | 36.9 µM | 31.3 µM | 28.1 µM | – | 27.3 µM | 32.5 µM | 32.1 µM | 29.4 µM | 30.2 µM | 30 µM | 43.2 µM | 29.6 µM | 36.3 µM | 33.3 µM
10 | COC(=O)/C(=N\N)C(C(=O)C(=O)Nc1cccc([N+](=O)[O-])c1)c1nc2ccc(C(=O)c3ccccc3)cc2[nH]c1=O (configuration not stated) | > 100 µM | 89.8 µM | > 100 µM | > 100 µM | – | > 100 µM | 79.4 µM | > 100 µM | > 100 µM | > 100 µM | > 100 µM | > 100 µM | > 100 µM | > 100 µM | > 100 µM | > 100 µM | > 100 µM | > 100 µM | > 100 µM | > 100 µM
11 | COc1cc(/C=C2\N=C(c3ccccc3)N(c3nc4cc(C)c(C)cc4s3)C2=O)cc(OC)c1OC | 49.1 µM | 30.3 µM | 99.1 µM | > 100 µM | > 100 µM | > 100 µM | 21.8 µM | 68.7 µM | > 100 µM | > 100 µM | – | > 100 µM | > 100 µM | > 100 µM | 98 µM | 48.6 µM | > 100 µM | > 100 µM | > 100 µM | 39.7 µM
12 | COc1cc(C2=C(C)[C@@H]3CN(CC=C3c3ccc(Cl)cc3)C2)c(S(=O)(=O)O)cc1OC | > 100 µM | > 100 µM | > 100 µM | > 100 µM | > 100 µM | > 100 µM | > 100 µM | > 100 µM | > 100 µM | > 100 µM | > 100 µM | > 100 µM | > 100 µM | > 100 µM | > 100 µM | > 100 µM | > 100 µM | > 100 µM | > 100 µM | –
